Where two headings read alike, the source gives them in different places. Starred links: 1 amine or outer side, 2 acyl side, 3 side chain; linkers in the order of their positions; H or OH if unused. Positions of bridges follow the written chain, without caps; N, C: chain ends. Non-standard residues stand in square brackets, D forms with d. Residues, ends and D or L forms follow the SMILES beside them. ξ: configuration not given here. *: point of attachment. X3 = COc1cc2cc(c1Cl)N(C)C(=O)C[C@H](OC(=O)[C@H](C)N(C)C(=O)CCSCc1ccc(N*)cc1)[C@]1(C)O[C@H]1[C@H](C)[C@@H]1C[C@@](O)(NC(=O)O1)[C@H](OC)/C=C/C=C(\C)C2; Dolaproine = CO[C@@H]([C@@H]1CCCN1)[C@@H](C)C(=O)O; Dil = CC[C@H](C)[C@H](NC)[C@@H](CC(=O)O)OC; TBMB = c1c(C[*:1])cc(C[*:3])cc1C[*:2]; Glutaryl = O=C(CCCC(=O)[*:2])[*:1]; X1 = C[C@@H](N*)[C@@H](O)c1ccccc1; ξ1Nal = NC(Cc1cccc2ccccc12)C(=O)O; Cit = NC(=O)NCCC[C@H](N)C(=O)O; NMeV = CN[C@H](C(=O)O)C(C)C; ξY = NC(Cc1ccc(O)cc1)C(=O)O; ξTle = CC(C)(C)C(N)C(=O)O; ξF = NC(Cc1ccccc1)C(=O)O; ξE = NC(CCC(=O)O)C(=O)O; ξD = NC(CC(=O)O)C(=O)O; ξN = NC(=O)CC(N)C(=O)O; ξC = NC(CS)C(=O)O; βAla = NCCC(=O)O; ξA = CC(N)C(=O)O; Sar = CNCC(=O)O
How the values were obtained:
[1] = Mortality, morbidity and body weight in HT1080 xenograft study (Example 13); assay type: in vivo, mouse; conditions: 10 mg/kg biw
Protocol: All the procedures related to animal handling, care and the treatment in the study were performed following the guidance of the Association for Assessment and Accreditation of Laboratory Animal Care (AAALAC). At the time of routine monitoring, the animals were daily checked for any effects of tumor growth and treatments on normal behavior such as mobility, food and water consumption (by looking only), body weight gain/loss (body weights were measured every day), eye/hair matting and any other abnormal effect as stated in the protocol. Death and observed clinical signs were recorded on the basis of the numbers of animals within each subset.
Body weight was monitored regularly as an indirect measure of toxicity.

EBC-1 = assay: cells; conditions: for IC50: read-out: Re IC50
From the text: (§1) Details of the initial cell plating procedure are described in Table 3.
(§2) Data Details for Tables 5 and 6. Inhibition %=(Max−Sample value)/(Max−Min)*100.
(§3) The IC50 curves were generated by 4 Parameter Logistic Model—Sigmoidal Dose-Response Model as follows: Y=Bottom+(Top−Bottom)/(1+10^((log EC50-X)*HillSlope)).

HCC1806 = assay: cells; conditions: for IC50: read-out: Re IC50
From the text: as §1, §2, §3

HCT15 = assay: cells; conditions: for IC50: read-out: Re IC50
From the text: as §1, §2, §3

HT1080 = assay: cells; conditions: for IC50: read-out: Re IC50
From the text: as §1, §2, §3

HT29 = assay: cells; conditions: for IC50: read-out: Re IC50
From the text: as §1, §2, §3

MDA-MB-231 = assay: cells; conditions: for IC50: read-out: Re IC50
From the text: as §1, §2, §3

MOLP-8 = assay: cells; conditions: for IC50: read-out: Re IC50
From the text: as §1, §2, §3

NCI-H1975 = assay: cells; conditions: for IC50: read-out: Re IC50
From the text: as §1, §2, §3

NCI-H292 = assay: cells; conditions: for IC50: read-out: Re IC50
From the text: as §1, §2, §3

PC-3 = assay: cells; conditions: for IC50: read-out: Re IC50
From the text: as §1, §2, §3

SNU-16 = assay: cells; conditions: for IC50: read-out: Re IC50
From the text: as §1, §2, §3

HT1080 cells [2] = assay: Cytotoxicity in HT1080 cells in presence and absence of 1 mM bacitracin (ATPlite, 24 hour exposure)
Protocol: HT1080 cells (ATCC, via LGC, BIC918) Maintained in EMEM media (Sigma M2279)+10% FBS (Sigma Code F7524)+4 mM L-Glu (Invitrogen Cat 25030-024)
I-1a and Toxins with Bacitracin—24 or 72 Hour Exposure in 96 Well Plates
DB seeded cells in normal media, 75 μL in 96 well clear plates, ˜24 hours previous.
HT1080—7.5 k cells/well: 50% confluent upon dosing.
Dilute in media 1:42.85=5 μL DMSO dilute+209 μL media=>use 15 μL per well
This gives a 5 μM top concentration for BDCs in assay
Add 10 µL of media±bacitracin (2 plates of each)−leave for 1 hr
(§4) Bacitracin=1 mM final concentration. This requires a 10 mM concentration with no DMSO.
Add 15 μL treatment per well as in Table 19, below.
Seal plates with gas permeable membrane and incubate at 37° C.
Washout HT1080 plates with 2×150 μL PBS at 24 h and add 100 μL fresh media
At t=72 h, equilibrate ATPlite reagent to room temperature. Add 10 ml buffer to each vial of lyophilized substrate. Add 100 μL reagent per well. Seal with PCR seal and cover to protect from light. Shake for 20 mins before reading luminescence

L540 cells = assay: Cytotoxicity in L540 cells in presence and absence of 1 mM bacitracin (ATPlite, 72 hour exposure); assay type: cell-based
Protocol: L540 cells (DSMZ # ACC72, BIC5121), maintained in RPMI-1640 medium (Sigma # R8758)+20% heat-inactivated serum
L540—20 k cells/well: 40% confluent upon dosing.
as §4
Add 100 μL reagent per well. […] Shake for 20 mins before reading luminescence

HT1080 cells [3] = assay: HT1080 cytotoxicity (ATPLite) in presence or absence of excess binding or non-binding peptide; assay type: cell-based; conditions: for IC50: mean ± standard deviation
Protocol: The target dependence of cytotoxicity of I-1a in cell lines expressing or lacking MT1-MMP was assessed by measuring ATP levels in an endpoint assay after 24 hours exposure to toxin, in the presence or absence of an excess of binding peptide or non-binding control peptide.
HT1080 cells were seeded in 96 well plates (75 μL/well) and incubated overnight at 37° C.+5% CO2. The next day, peptides were prepared in buffer from a DMSO stock. 10 μL of buffer or peptide was added to the cells and incubated for 1 hour. Toxins were diluted in cell culture media and 15 μL/well was added to the cells (<0.5% final DMSO). Cells were approximately 30-50% confluent upon dosing. Plates were sealed with gas permeable seals and incubated for 24 hours at 37° C.+5% CO2. After 24 hours, media was removed, cells were washed with PBS and 100 μL fresh media was added per well. Cells were incubated for a further 48 hours at 37° C.+5% CO2.
ATPLite reagent (Perkin Elmer) was equilibrated to room temperate and reconstituted in buffer as per the manufacturer's instructions. 100 μL reagent was added per well. Plates were sealed and shaken gently for 20 minutes to ensure complete cell lysis before luminescence was read using a BMG Pherastar. […] Data was analyzed using GraphPad Prism. Non-linear regression fit was used to calculate an IC50 for each toxic agent: Y=Bottom+(Top−Bottom)/(1+10^((Log IC50-X)*HillSlope)).

11 tumor cell lines = assay: 11 cancer cell line panel cytotoxicity, statements on the whole panel; conditions: 72 h, read-out: IC50 on all 11 tumor cell lines
From the text: as §1, §2, §3

[4] = read-out: IC50 with 1 mM bacitracin, 24 hour exposure, + 1 mM bacitracin (PDI inhibitor)
[5] = read-out: Standard IC50, 24 hour exposure (high MT1 expression), no block
[6] = 72 hour exposure (low/no MT1 expression), no block, read-out: Standard IC50
[7] = read-out: IC50 with 1 mM bacitracin, 72 hour exposure, + 1 mM bacitracin

SMILES	Top inhibition% (EBC-1; EBC-1, 72 hours) [%]	IC50 (EBC-1; EBC-1, 72 hours) [nM]	Top inhibition% (HCC1806; HCC1806, 72 hours) [%]	IC50 (HCC1806; HCC1806, 72 hours) [nM]	Top inhibition% (HCT15; HCT15, 72 hours) [%]	IC50 (HCT15; HCT15, 72 hours) [nM]	Top inhibition% (HT1080; HT1080, 72 hours) [%]	IC50 (HT1080; HT1080, 72 hours) [nM]	Top inhibition% (HT29; HT29, 72 hours) [%]	IC50 (HT29; HT29, 72 hours) [nM]	Top inhibition% (MDA-MB-231; MDA-MB-231, 72 hours) [%]	IC50 (MDA-MB-231; MDA-MB-231, 72 hours) [nM]	Top inhibition% (MOLP-8; MOLP-8, 72 hours) [%]	IC50 (MOLP-8; MOLP-8, 72 hours) [nM]	Top inhibition% (NCI-H1975; NCI-H1975, 72 hours) [%]	IC50 (NCI-H1975; NCI-H1975, 72 hours) [nM]	Top inhibition% (NCI-H292; NCI-H292, 72 hours) [%]	IC50 (NCI-H292; NCI-H292, 72 hours) [nM]	Top inhibition% (PC-3; PC-3, 72 hours) [%]	Top inhibition% (SNU-16; SNU-16, 72 hours) [%]	further results
COc1cc2cc(c1Cl)N(C)C(=O)C[C@H](OC(=O)[C@H](C)N(C)C(=O)CCSCc1ccc(NC(=O)[C@H](CCCNC(N)=O)NC(=O)[C@@H](NC(=O)CCCC(=O)NCCC(=O)N(C)CC(=O)N(C)CC(=O)N(C)CC(=O)N(C)CC(=O)N(C)CC(=O)N(C)CC(=O)N(C)CC(=O)N(C)CC(=O)N(C)CC(=O)N(C)CC(=O)NC(C)C(=O)NC3CSCc4cc5cc(c4)CSCC(NC(=O)C(C)NC(=O)C(Cc4cccc6ccccc46)NC(=O)C(CCC(=O)O)NC(=O)C(CC(N)=O)NC(=O)C(C)NC3=O)C(=O)NC(C)C(=O)NC(CC(=O)O)C(=O)NC(Cc3ccccc3)C(=O)NC(Cc3ccc(O)cc3)C(=O)NC(CC(=O)O)C(=O)NC(C(C)(C)C)C(=O)NC(C(N)=O)CSC5)C(C)C)cc1)[C@]1(C)O[C@H]1[C@H](C)[C@@H]1C[C@@](O)(NC(=O)O1)[C@H](OC)/C=C/C=C(\C)C2 (stereo partly drawn) [Compound I-7] ({X3-Cit-Val-Glutaryl-βAla}-[Sar][Sar][Sar][Sar][Sar][Sar][Sar][Sar][Sar][Sar][ξA][ξC][ξA][ξN][ξE][ξ1Nal][ξA][ξC][ξA][ξD][ξF][ξY][ξD][ξTle][ξC]-NH2; linker 12-18-25 via TBMB)																					mice died during the dosing period [1]: 2/3
COc1cc2cc(c1Cl)N(C)C(=O)C[C@H](OC(=O)[C@H](C)N(C)C(=O)CCSSC)[C@]1(C)O[C@H]1[C@H](C)[C@@H]1C[C@@](O)(NC(=O)O1)[C@H](OC)/C=C/C=C(\C)C2 [DM1-Sme]	65	0.32	88	0.62	94	0.94	99	0.22	82	0.68	49	0.79	92	0.21	64	1.52	77	0.27	54	98	IC50 (PC-3; PC-3, 72 hours): 0.18 nM; IC50 (SNU-16; SNU-16, 72 hours): 0.77 nM; Fold shift with bacitracin (HT1080 cells [2]; 24 hour exposure, 1 mM bacitracin vs none): 5.9; IC50 (HT1080 cells [2]; [4]): 0.41 nM; IC50 (HT1080 cells [2]; [5]): 0.07 nM; IC50 (L540 cells; [6]): 9.6 nM; IC50 (L540 cells; [7]): 12 nM
CC[C@H](C)[C@@H]([C@@H](CC(=O)N1CCC[C@H]1[C@H](OC)[C@@H](C)C(=O)N[C@H](C)[C@@H](O)c1ccccc1)OC)N(C)C(=O)[C@@H](NC(=O)[C@@H](NC)C(C)C)C(C)C [MMAE, monomethyl auristatin E] (H-[NMeV]V[Dil][Dolaproine]-X1)	67	0.35	91	0.26	100	21.4	97	0.68	81	0.42	61	0.62	93	0.65	65	0.38	86	0.34	58	99	IC50 (PC-3; PC-3, 72 hours): 0.85 nM; IC50 (SNU-16; SNU-16, 72 hours): 0.18 nM; IC50 (HT1080 cells [2]; [4]): 0.15 nM; IC50 (HT1080 cells [2]; [5]): 0.083 nM; IC50 (L540 cells; [6]): 0.49 nM; IC50 (L540 cells; [7]): 0.28 nM; IC50 (HT1080 cells [3]; 24 hours exposure, No block, 3 repeats): 0.06 nM; Maximum kill (HT1080 cells [3]; +250 μM binding peptide): 95%; IC50 (HT1080 cells [3]; +250 μM binding peptide): 0.05 nM; Maximum kill (HT1080 cells [3]; +250 μM non-binding peptide): 95%; IC50 (HT1080 cells [3]; +250 μM non-binding peptide): 0.05 nM; Maximum kill (HT1080 cells [3]; No block, compared to a lysis control): 95%
CCc1c2c(nc3ccc(O)cc13)-c1cc3c(c(=O)n1C2)COC(=O)[C@]3(O)CC [SN38]	87		96		80		96		98		78		88		116		92		78	76	IC50 (EBC-1; Homo sapiens, EBC-1, 72 h): 2.34 nM; IC50 (HCC1806; Homo sapiens, HCC1806, 72 h): 4.69 nM; IC50 (HCT15; Homo sapiens, HCT-15, 72 h): 11.5 nM; IC50 (HT1080; Homo sapiens, HT-1080, 72 h): 1.35 nM; IC50 (HT29; Homo sapiens, HT-29, 72 h): 23.7 nM; IC50 (MDA-MB-231; Homo sapiens, MDA-MB-231, 72 h): 25.1 nM; IC50 (MOLP-8; Homo sapiens, MOLP-8, 72 h): 3.59 nM; IC50 (NCI-H1975; Homo sapiens, NCI-H1975, 72 h): 272 nM; IC50 (NCI-H292; Homo sapiens, NCI-H292, 72 h): 3.48 nM; IC50 (PC-3; Homo sapiens, PC-3, 72 h): 48.7 nM; IC50 (SNU-16; Homo sapiens, SNU-16, 72 h): 2.14 nM; IC50 (11 tumor cell lines): < 300 nM

— patent US10624968B2, “Compounds for treating cancer” (Bicycle Therapeutics Limited, priority 2017, dated 2020)
